In US20230031406A1, “COMPOUNDS AND COMPOSITIONS FOR TREATING CONDITIONS ASSOCIATED WITH NLRP ACTIVITY” (Novartis AG, priority 2018, published 2023) one finds IC50 data, which are given here for 25 molecules.

Broadly, the IC50 is the midpoint of a concentration-inhibition curve.

The test system of this assay is PMA-differentiated THP-1 cells. Nature of the assay: IL-1β production in PMA-differentiated THP-1 cells stimulated with gramicidin (hTHP-1 assay containing 2% fetal bovine serum; Procedures 1 and 2). It counts as cell-based, human. Particulars: 2% fetal bovine serum. In short, it runs like this: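 Human monocytic THP-1 cells, matured overnight with PMA at 20 ng/ml, are seeded in low-serum (2% FBS) RPMI. Test compounds, at final concentrations from 100 down to 0.0017 μM, precede gramicidin (5 μM, 2 h) by one hour. Released IL-1β is then determined by HTRF.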

Where [1] appears, read: Table B2, class symbols, read-out: hTHP-1 IC50.
The mark [2] stands for this setting: Homo sapiens, THP-1, Table B2, class symbols, read-out: hTHP-1 IC50.
Setting [3] is: Table B1, class symbols, read-out: Average IC50 of compounds in hTHP-1 assay: hTHP-1 IC50.
The mark [4] stands for this setting: Table B3, hTHP-1 assay, class symbols, read-out: IC50.
Where [5] appears, read: Homo sapiens, THP-1, Table B1, class symbols, read-out: Average IC50 of compounds in hTHP-1 assay: hTHP-1 IC50.
Setting [6] is: Homo sapiens, THP-1, Table B3, hTHP-1 assay, class symbols, read-out: IC50.
Setting [7] is: Table B4, class symbols, read-out: hTHP-1 IC50.

Like-named read-outs stand apart in the source and are kept apart here.

For the molecule `Cc1c(C(C)C)nc2c(c1NC(=O)N=S(N)(=O)c1sc(C(C)(C)O)cc1F)CCC2` (single isomer, unassigned) [Compound 645a, (R) or (S)-3-Fluoro-5-(2-hydroxypropan-2-yl)-N′-((2-isopropyl-3-methyl-6,7-dihydro-5H-cyclopenta[b]pyridin-4-yl)carbamoyl) thiophene-2-sulfonimidamide], under setting [1], the IC50 was in the range of 40 to 200 nM.

Regarding `CCC1CCc2c1nc1c(c2NC(=O)N=S(N)(=O)c2sc(C(C)(C)O)cc2F)CCC1` (single isomer, unassigned) [Compound 671c, (R, S) or (R, R) or (S, R) or (S, S)-N′-((3-ethyl-1,2,3,5,6,7-hexahydrodicyclopenta [b,e]pyridin-8-yl)carbamoyl)-3-fluoro-5-(2-hydroxypropan-2-yl) thiophene-2-sulfonimidamide], the IC50 under setting [1] was 1000 to 5000 nM.

Turning to `CC(C)(O)c1csc(S(N)(=O)=NC(=O)Nc2cc(CC(F)(F)F)nc3c2CCC3)c1` (single isomer, unassigned) [Compound 607b, (R) or (S)-4-(2-Hydroxypropan-2-yl)-N′-((2-(2,2,2-trifluoroethyl)-6,7-dihydro-5H-cyclopenta[b]pyridin-4-yl)carbamoyl) thiophene-2-sulfonimidamide], the IC50 under setting [2] was in the range of 1000 to 5000 nM.

Consider `CC1CCc2c1nc1c(c2NC(=O)N=S(N)(=O)c2cc(C(C)(C)O)cs2)CCC1` (stereo not shown) [Compound 141, 4-(2-hydroxypropan-2-yl)-N′-((3-methyl-1,2,3,5,6,7-hexahydrodicyclopenta[b,e]pyridin-8-yl)carbamoyl)thiophene-2-sulfonimidamide], for which the IC50 under setting [3] was in the range of 40 to 200 nM.

As to `CCn1cc(F)c(S(N)(=O)=NC(=O)Nc2c3c(nc4c2CC[C@@H]4C)CCC3)n1` (single isomer, unassigned) [Example 712, (S) or (R)-1-ethyl-4-fluoro-N′-(((S)-3-methyl-1,2,3,5,6,7-hexahydrodicyclopenta[b,e]pyridin-8-yl)carbamoyl)-1H-pyrazole-3-sulfonimidamide], the IC50 under setting [4] is 5000 to 30000 nM.

As for `CC(C)c1c(-c2ccccc2)nc2c(c1NC(=O)N=S(N)(=O)c1cnc(C(C)(C)O)s1)CCC2` (stereo not shown) [Compound 145, 2-(2-hydroxypropan-2-yl)-N′-((3-isopropyl-2-phenyl-6,7-dihydro-5H-cyclopenta[b]pyridin-4-yl)carbamoyl)thiazole-5-sulfonimidamide], under setting [5], the IC50 lay in the range of 5000 to 30000 nM.

As for `CC(C)(O)c1csc(S(N)(=O)=NC(=O)Nc2c3c(nc4c2CCC4)CCC3)c1` (stereo not shown) [Compound 155, N′-((1,2,3,5,6,7-hexahydrodicyclopenta[b,e]pyridin-8-yl)carbamoyl)-4-(2-hydroxypropan-2-yl)thiophene-2-sulfonimidamide], the IC50 under setting [5] lay within 40 to 200 nM.

For `CCc1c(C)nc2c(c1NC(=O)N=S(N)(=O)c1cnc(C(C)(C)O)s1)CCC2` (single isomer, unassigned) [Compound 117a, (S) or (R)-N′-((3-ethyl-2-methyl-6,7-dihydro-5H-cyclopenta[b]pyridin-4-yl)carbamoyl)-2-(2-hydroxypropan-2-yl)thiazole-5-sulfonimidamide], where the note is “Homo sapiens, THP-1, Table B1, numeric bounds, read-out: Average IC50 of compounds in hTHP-1 assay: hTHP-1 IC50”, the IC50 is more than 30000 nM.

For `C[C@@H]1CCc2c1nc1c(c2NC(=O)N=S(N)(=O)c2nn(C(F)F)cc2F)CCC1` (stereo partly drawn) [Example 568, 1-(Difluoromethyl)-4-fluoro-N′-(((R)-3-methyl-1,2,3,5,6,7-hexahydrodicyclopenta[b,e]pyridin-8-yl)carbamoyl)-1H-pyrazole-3-sulfonimidamide], under setting [6], the IC50 lay within 40 to 200 nM.

For the molecule `CC(C)c1cnc(F)c(C(C)C)c1NC(=O)N=S(N)(=O)c1cnc(C(C)(C)O)s1` (single isomer, unassigned) [Compound 115a, (S) or (R)-N′-((2-fluoro-3,5-diisopropylpyridin-4-yl)carbamoyl)-2-(2-hydroxypropan-2-yl)thiazole-5-sulfonimidamide], under setting [1], the half-inhibitory concentration (IC50) is 5000 to 30000 nM.

As to `CC1CCc2c1nc1c(c2NC(=O)N=S(N)(=O)c2ccn(C(F)F)n2)CCC1` (single isomer, unassigned) [Compound 184a, (R,R) or (R,S)-1-(difluoro-methyl)-N′-((3-methyl-1,2,3,5,6,7-hexahydro-dicyclopenta[b,e]pyridin-8-yl)carbamoyl)-1H-pyrazole-3-sulfonimidamide], the IC50 under setting [3] is 40 to 200 nM.

Regarding `CCc1nc2c(c(NC(=O)N=S(N)(=O)c3cnc(C(C)(C)O)s3)c1C1CC1)CCC2` (single isomer, unassigned) [Compound 630b, (R) or (S)-N′-((3-cyclopropyl-2-ethyl-6,7-dihydro-5H-cyclopenta[b]pyridin-4-yl)carbamoyl)-2-(2-hydroxypropan-2-yl)thiazole-5-sulfonimidamide], the IC50 under setting [1] is 200 to 1000 nM.

For the molecule `CCn1ccc(S(N)(=O)=NC(=O)Nc2c(C)c(C(F)(F)F)nc3c2CCC3)n1` (stereo not shown) [Compound 731], the IC50 under setting [2] fell in the range of 1000 to 5000 nM.

As for `CCc1c(C2CC2)nc2c(c1NC(=O)N=S(N)(=O)c1cc(C(C)(C)O)cs1)CCC2` (single isomer, unassigned) [Compound 181b, (R) or (S)-N′((2-cyclopropyl-3-ethyl-6,7-dihydro-5H-cyclopenta[b]pyridin-4-yl)carbamoyl)-4-(2-hydroxypropan-2-yl)thiophene-2-sulfonimidamide], under setting [1], the IC50 is 40 to 200 nM.

For the molecule `CC(C)(O)c1cccc(S(N)(=O)=NC(=O)Nc2c3c(nc4c2CCC4)CCC3)c1` (stereo not shown) [Compound 625, N′-((1,2,3,5,6,7-hexahydrodicyclopenta[b,e]pyridin-8-yl)carbamoyl)-3-(2-hydroxypropan-2-yl)benzenesulfonimidamide], the IC50 under setting [2] was 5000 to 30000 nM.

Turning to `NS(=O)(=NC(=O)Nc1c2c(nc(C3CC3)c1C1CC1)CCC2)c1nn(C(F)F)cc1F` (single isomer, unassigned) [Example 763, (R) or (S)-N′-((2,3-dicyclopropyl-6,7-dihydro-5H-cyclopenta[b]pyridin-4-yl)carbamoyl)-1-(difluoromethyl)-4-fluoro-1H-pyrazole-3-sulfonimidamide], under setting [7], the IC50 lay in the range of 200 to 1000 nM.

Turning to `CC(C)c1nc(CO)c(S(N)(=O)=NC(=O)Nc2c3c(nc4c2CCC4(C)C)CCC3)s1` (single isomer, unassigned) [Compound 680a, (S) or (R)-N′-((3,3-dimethyl-1,2,3,5,6,7-hexahydrodicyclopenta [b,e]pyridin-8-yl)carbamoyl)-4-(hydroxymethyl)-2-isopropylthiazole-5-sulfonimidamide], the IC50 under setting [1] was 5000 to 30000 nM.

`Cc1c(C(F)(F)F)nc2c(c1NC(=O)N=S(N)(=O)c1ccn(C(C)C)n1)CCC2` (single isomer, unassigned) [Compound 628b, (R) or (S)-1-Isopropyl-N′-((3-methyl-2-(trifluoromethyl)-6,7-dihydro-5H-cyclopenta[b]pyridin-4-yl)carbamoyl)-1H-pyrazole-3-sulfonimidamide]: the IC50 under setting [2] lay within 200 to 1000 nM.

Turning to `CC1CCc2c1nc1c(c2NC(=O)N=S(N)(=O)c2cn(C(C)C)cn2)CCC1` (stereo not shown) [Compound 660, 1-Isopropyl-N′-((3-methyl-1,2,3,5,6,7-hexahydrodicyclopenta[b,e]pyridin-8-yl)carbamoyl)-1H-imidazole-4-sulfonimidamide], the IC50 under setting [1] was 5000 to 30000 nM.

Consider `CC(C)n1cc(F)c(S(N)(=O)=NC(=O)Nc2c3c(nc4c2CC[C@H]4C)CCC3)n1` (single isomer, unassigned) [Example 758, (S) or (R)-4-fluoro-1-isopropyl-N′-(((R)-3-methyl-1,2,3,5,6,7-hexahydrodicyclopenta[b,e]pyridin-8-yl)carbamoyl)-1H-pyrazole-3-sulfonimidamide], for which the IC50 under setting [7] fell in the range of 1000 to 5000 nM.

On to `Cc1sc(S(N)(=O)=NC(=O)Nc2c3c(nc4c2CCC4(C)C)CCC3)cc1C(C)(C)O` (single isomer, unassigned) [Compound 169a, (S) or (R)-N′-((3,3-dimethyl-1,2,3,5,6,7-hexahydro-dicyclopenta[b,e]pyridin-8-yl)carbamoyl)-4-(2-hydroxypropan-2-yl)-5-methylthiophene-2-sulfonimidamide], for which the IC50 under setting [3] is 5000 to 30000 nM.

Take `CC1(C)CCc2c1nc1c(c2NC(=O)N=S(N)(=O)c2ccn(-c3ccccc3)n2)CCC1` (single isomer, unassigned) [Compound 659a, (S) or (R)-N′-((3,3-dimethyl-1,2,3,5,6,7-hexahydrodicyclopenta [b,e]pyridin-8-yl)carbamoyl)-1-phenyl-1H-pyrazole-3-sulfonimidamide]: the IC50 under setting [1] lay in the range of 5000 to 30000 nM.

In the case of `NS(=O)(=NC(=O)Nc1c2c(nc(C3CC3)c1C1CC1)CCC2)c1ccn(C(F)F)n1` (single isomer, unassigned) [Example 695, (R) or (S)-N′-((2,3-dicyclopropyl-6,7-dihydro-5H-cyclopenta [b]pyridin-4-yl)carbamoyl)-1-(difluoromethyl)-1H-pyrazole-3-sulfonimidamide], under setting [4], the IC50 was in the range of 1000 to 5000 nM.

`Cc1c(C(F)(F)F)nc2c(c1NC(=O)N=S(N)(=O)c1ccn(C)n1)CCC2` (single isomer, unassigned) [Example 693, (R) or (S)-1-Methyl-N′-((3-methyl-2-(trifluoromethyl)-6,7-dihydro-5H-cyclopenta[b]pyridin-4-yl)carbamoyl)-1H-pyrazole-3-sulfonimidamide]: the IC50 under setting [6] fell in the range of 1000 to 5000 nM.

As to `NS(=O)(=NC(=O)Nc1c2c(nc3c1CCC31CC1)CCC2)c1ccn(CCO)n1` (stereo not shown) [Example 622, 1-(2-Hydroxyethyl)-N′-((1′,5′,6′,7′-tetrahydro-2′H-spiro[cyclopropane-1,3′-dicyclopenta[b,e]pyridin]-8′-yl)carbamoyl)-1H-pyrazole-3-sulfonimidamide], the IC50 under setting [6] is 1000 to 5000 nM.
